Calls of active or inactive are those of the source.
Legend:
[1] = biological target: T1, Polyadenylate-binding protein 1 (Homo sapiens, UniProt P11940); test: MLLE domain peptide-binding blockers, IC50 – biochemical, fluorescence polarization, FITC-PAM2 peptide, dose response (AID 602259); assay type: functional; details: read-out: IC50_Mean
[2] = biological target: T1, Polyadenylate-binding protein 1; test: MLLE binding blockers, Cy5 peptide tracer – biochemical, fluorescence polarization, Cy5-PAM2 peptide, secondary, miRNA deadenylation inhibitor project, dose response (AID 602260); assay type: functional; details: read-out: IC50_Mean
Vero = test: cells; assay type: functional; details: Chlorocebus sabaeus
Fatty acid synthase [3] = biological target: T2, Fatty acid synthase (Homo sapiens, UniProt P49327); test: inhibition of human FAS-TE enzyme activity – biochemical, kinetic fluorescence intensity, dose response (AID 624326); assay type: functional;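 further: rate of fluorescence rise from hydrolysis of a fluorogenic O-methyl fluorescein ester substrate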
T2 sequence (P49327 whole entry): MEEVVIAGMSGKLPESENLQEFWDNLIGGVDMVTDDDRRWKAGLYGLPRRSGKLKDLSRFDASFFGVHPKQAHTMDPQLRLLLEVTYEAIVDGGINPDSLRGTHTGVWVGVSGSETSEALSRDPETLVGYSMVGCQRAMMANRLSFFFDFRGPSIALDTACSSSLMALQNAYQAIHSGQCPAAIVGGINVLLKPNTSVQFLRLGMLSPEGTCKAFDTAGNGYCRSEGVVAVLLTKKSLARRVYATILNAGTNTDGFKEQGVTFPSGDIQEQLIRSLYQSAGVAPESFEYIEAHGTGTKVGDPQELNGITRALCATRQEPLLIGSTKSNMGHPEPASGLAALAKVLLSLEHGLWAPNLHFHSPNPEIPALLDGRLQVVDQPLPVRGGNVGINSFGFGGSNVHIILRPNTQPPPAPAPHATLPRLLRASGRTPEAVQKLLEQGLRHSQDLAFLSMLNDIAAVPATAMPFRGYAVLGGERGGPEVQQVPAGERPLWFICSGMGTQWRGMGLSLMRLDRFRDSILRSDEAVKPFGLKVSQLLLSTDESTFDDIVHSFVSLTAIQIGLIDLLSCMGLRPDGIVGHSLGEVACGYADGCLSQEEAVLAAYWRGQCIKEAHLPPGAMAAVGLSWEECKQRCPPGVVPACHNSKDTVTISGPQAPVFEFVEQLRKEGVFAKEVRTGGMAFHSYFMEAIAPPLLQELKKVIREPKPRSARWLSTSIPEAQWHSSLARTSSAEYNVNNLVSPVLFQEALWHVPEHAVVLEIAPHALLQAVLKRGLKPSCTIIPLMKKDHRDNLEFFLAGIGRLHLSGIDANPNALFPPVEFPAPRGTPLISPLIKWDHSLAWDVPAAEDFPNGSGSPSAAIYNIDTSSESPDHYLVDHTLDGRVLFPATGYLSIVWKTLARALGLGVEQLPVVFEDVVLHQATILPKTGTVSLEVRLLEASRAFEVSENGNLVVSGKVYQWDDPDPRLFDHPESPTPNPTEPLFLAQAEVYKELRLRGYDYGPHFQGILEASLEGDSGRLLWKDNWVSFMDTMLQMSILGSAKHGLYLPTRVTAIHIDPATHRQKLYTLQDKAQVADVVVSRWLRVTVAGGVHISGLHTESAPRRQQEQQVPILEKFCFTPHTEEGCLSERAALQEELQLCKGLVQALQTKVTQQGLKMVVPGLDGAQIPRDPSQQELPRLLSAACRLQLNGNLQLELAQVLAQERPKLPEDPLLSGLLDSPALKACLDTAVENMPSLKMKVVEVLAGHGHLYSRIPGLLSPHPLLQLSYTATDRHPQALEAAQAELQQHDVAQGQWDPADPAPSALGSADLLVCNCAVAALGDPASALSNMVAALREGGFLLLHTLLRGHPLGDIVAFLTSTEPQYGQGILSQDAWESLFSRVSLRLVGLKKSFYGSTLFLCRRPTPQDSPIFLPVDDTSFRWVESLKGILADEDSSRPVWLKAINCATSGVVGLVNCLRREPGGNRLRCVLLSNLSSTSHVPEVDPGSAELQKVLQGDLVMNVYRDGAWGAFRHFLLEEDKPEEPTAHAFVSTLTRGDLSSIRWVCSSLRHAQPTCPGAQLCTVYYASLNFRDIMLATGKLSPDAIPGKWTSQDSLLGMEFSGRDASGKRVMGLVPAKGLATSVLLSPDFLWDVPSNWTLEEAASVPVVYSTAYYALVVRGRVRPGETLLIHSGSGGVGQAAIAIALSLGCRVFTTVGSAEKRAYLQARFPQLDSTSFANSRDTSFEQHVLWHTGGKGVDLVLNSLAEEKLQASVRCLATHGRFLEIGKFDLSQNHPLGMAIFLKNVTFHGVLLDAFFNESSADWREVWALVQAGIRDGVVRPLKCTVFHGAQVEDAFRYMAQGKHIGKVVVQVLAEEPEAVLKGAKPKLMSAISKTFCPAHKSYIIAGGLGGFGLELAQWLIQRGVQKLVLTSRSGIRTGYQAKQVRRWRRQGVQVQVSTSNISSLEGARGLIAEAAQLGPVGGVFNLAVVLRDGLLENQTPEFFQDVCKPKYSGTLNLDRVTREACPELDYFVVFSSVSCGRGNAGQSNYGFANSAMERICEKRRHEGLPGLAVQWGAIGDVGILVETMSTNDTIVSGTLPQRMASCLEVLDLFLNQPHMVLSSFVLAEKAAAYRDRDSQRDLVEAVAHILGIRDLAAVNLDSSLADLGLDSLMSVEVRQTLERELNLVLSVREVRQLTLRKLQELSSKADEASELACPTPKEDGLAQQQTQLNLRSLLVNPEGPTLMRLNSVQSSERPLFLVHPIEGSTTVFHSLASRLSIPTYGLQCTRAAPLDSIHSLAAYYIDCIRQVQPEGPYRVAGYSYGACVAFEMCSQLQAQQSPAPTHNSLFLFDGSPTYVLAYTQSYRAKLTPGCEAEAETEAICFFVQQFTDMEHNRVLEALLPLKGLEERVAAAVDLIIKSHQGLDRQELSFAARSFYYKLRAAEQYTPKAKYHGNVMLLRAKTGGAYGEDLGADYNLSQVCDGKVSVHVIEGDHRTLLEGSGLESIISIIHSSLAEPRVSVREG

Fatty acid synthase [4] = biological target: T2, Fatty acid synthase; test: inhibition of human FAS-TE enzyme activity – biochemical, endpoint fluorescence intensity, uHTS hits, dose response (AID 624327); assay type: functional;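 further: fluorescence from hydrolysis of an O-methyl fluorescein acyl ester substrate by the enzyme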
Cytochrome P450 3A4 = Cytochrome P450 3A4 (Homo sapiens, UniProt P08684);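 further: CYP3A4 tested as one member of a cytochrome P450 panel screen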
Cytochrome P450 2C19 = Cytochrome P450 2C19 (Homo sapiens, UniProt P33261); test: Cytochrome panel assay with activity outcomes. Panel member name: p450-cyp2c19 Compounds with AC50 equal or less than 10 uM are considered active; assay type: functional; details: read-out: AC50
Cytochrome P450 2C19, sequence (P33261 whole entry): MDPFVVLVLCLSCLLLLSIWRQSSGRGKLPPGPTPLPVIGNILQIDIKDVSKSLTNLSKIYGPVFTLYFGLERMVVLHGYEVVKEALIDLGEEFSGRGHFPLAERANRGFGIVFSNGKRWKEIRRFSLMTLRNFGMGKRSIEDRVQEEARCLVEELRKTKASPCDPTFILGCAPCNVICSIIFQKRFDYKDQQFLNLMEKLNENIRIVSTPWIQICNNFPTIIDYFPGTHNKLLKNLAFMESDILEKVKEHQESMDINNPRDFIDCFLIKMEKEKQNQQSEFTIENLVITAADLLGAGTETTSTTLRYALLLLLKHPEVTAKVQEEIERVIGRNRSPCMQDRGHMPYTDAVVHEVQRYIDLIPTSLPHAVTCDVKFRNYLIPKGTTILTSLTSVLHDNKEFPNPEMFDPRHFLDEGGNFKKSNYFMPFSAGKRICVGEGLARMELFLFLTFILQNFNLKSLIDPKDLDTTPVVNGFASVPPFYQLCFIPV

Cytochrome P450 2C9 = Cytochrome P450 2C9 (Homo sapiens, UniProt P11712)
Cytochrome P450 2C9, sequence (P11712 whole entry): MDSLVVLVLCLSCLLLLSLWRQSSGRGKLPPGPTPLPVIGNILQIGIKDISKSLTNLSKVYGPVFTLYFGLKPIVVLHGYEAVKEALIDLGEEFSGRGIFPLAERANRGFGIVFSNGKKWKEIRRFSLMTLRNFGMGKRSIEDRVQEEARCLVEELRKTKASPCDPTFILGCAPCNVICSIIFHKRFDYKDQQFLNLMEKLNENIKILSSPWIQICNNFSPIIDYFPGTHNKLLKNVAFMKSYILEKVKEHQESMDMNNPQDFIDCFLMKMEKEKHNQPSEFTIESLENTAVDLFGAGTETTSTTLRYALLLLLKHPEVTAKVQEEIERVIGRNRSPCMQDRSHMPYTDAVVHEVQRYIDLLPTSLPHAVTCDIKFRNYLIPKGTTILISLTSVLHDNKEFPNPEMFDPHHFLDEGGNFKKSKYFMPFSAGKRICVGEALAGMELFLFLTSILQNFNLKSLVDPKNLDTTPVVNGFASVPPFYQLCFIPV

Cytochrome P450 2D6 = Cytochrome P450 2D6 (Homo sapiens, UniProt P10635);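 further: CYP2D6 member of a cytochrome P450 panel assay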
Cytochrome P450 2D6, sequence (P10635 whole entry): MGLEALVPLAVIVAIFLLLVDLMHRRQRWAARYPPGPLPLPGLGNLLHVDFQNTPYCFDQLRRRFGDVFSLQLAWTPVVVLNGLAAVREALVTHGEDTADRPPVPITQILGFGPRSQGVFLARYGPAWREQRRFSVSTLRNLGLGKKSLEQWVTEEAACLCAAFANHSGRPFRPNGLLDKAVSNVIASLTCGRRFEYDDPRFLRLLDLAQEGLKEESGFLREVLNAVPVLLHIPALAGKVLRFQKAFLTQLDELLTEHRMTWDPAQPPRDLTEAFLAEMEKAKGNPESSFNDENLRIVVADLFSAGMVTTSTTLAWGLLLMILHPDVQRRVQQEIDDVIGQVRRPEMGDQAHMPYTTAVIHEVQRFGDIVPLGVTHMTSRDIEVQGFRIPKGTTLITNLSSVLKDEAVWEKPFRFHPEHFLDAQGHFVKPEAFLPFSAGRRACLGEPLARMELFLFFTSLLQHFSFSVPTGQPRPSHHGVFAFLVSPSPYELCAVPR

[5] = biological target: T3, Calpain-2 catalytic subunit (Sus scrofa, UniProt P43367); test: m-calpain protease blockers, concentration series – biochemical, fluorogenic peptide substrate, dose response (AID 1420); assay type: functional
T3 sequence (P43367 whole entry): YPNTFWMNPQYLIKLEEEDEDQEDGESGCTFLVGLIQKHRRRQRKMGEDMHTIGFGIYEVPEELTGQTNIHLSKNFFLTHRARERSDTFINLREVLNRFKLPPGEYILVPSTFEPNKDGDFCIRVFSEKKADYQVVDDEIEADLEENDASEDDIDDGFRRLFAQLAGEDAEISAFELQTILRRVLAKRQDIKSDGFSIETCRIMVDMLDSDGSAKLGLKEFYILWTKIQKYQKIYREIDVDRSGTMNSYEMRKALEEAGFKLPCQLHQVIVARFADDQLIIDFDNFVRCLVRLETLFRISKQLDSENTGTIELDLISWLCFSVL

[6] = biological target: T4, Heat shock factor protein 1 (Mus musculus, UniProt P38532); test: enhancement of HSF1-driven luciferase signal – cell-based, NIH3T3, luminescence, dose retest, confirmation (AID 435004); assay type: functional;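 further: stress induced by proteasome inhibitor MG132 added 30 min after compound; luciferase reporter driven by HSF1 response element in NIH3T3 cells; actives raise luminescence as potentiators of the MG132 stress response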
T4 sequence (P38532 whole entry): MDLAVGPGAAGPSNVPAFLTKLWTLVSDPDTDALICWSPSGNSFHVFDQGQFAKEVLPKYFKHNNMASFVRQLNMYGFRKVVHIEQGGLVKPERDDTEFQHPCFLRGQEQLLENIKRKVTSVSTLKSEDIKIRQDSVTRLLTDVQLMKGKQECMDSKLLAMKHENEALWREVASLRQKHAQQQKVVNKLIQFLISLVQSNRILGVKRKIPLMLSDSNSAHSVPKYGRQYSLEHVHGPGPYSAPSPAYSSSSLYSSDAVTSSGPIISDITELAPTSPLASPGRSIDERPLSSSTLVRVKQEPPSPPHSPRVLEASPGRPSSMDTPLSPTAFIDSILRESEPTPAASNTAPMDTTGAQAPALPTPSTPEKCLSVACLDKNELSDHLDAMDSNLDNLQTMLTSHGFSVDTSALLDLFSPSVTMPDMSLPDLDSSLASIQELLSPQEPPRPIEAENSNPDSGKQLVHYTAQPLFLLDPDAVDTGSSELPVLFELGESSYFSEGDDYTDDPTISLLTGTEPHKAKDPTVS

Cytochrome P450 1A2 = biological target: T5, Cytochrome P450 1A2 (Homo sapiens, UniProt P05177);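 further: PubChem cytochrome P450 panel assay, CYP1A2 panel member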
T5 sequence (P05177 whole entry): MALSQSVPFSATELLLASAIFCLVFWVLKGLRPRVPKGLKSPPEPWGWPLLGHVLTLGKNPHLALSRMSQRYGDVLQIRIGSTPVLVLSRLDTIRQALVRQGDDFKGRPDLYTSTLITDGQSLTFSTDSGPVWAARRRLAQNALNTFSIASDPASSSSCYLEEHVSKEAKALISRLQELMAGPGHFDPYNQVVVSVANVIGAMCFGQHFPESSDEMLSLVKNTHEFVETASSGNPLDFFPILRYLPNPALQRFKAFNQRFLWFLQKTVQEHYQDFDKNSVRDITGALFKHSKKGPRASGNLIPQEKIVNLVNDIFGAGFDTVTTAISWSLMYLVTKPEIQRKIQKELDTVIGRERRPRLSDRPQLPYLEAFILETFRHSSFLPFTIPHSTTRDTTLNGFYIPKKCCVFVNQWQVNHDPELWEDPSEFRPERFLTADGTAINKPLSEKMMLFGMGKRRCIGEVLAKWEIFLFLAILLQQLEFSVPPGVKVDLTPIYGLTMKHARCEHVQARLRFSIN

[7] = biological target: T6, Corticotropin-releasing factor receptor 2/Corticotropin-releasing factor-binding protein (Homo sapiens, UniProt P24387+Q13324); test: activators of CRF receptor 2 with binding protein – uHTS hits, confirmation (AID 602473); assay type: functional; details: read-out: EC50_Mean
T6 sequence (Q13324 whole entry): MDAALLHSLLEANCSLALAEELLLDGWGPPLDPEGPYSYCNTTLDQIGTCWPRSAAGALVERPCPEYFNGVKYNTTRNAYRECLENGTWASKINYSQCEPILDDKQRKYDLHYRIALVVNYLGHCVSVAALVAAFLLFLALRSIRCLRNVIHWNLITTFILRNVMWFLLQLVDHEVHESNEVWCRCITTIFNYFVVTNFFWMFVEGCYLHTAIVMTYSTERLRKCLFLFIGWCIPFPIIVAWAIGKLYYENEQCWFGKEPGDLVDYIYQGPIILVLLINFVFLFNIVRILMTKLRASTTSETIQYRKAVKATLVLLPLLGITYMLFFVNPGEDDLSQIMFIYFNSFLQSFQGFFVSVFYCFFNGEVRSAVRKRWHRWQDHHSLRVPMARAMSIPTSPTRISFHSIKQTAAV
T6 sequence (P24387 whole entry): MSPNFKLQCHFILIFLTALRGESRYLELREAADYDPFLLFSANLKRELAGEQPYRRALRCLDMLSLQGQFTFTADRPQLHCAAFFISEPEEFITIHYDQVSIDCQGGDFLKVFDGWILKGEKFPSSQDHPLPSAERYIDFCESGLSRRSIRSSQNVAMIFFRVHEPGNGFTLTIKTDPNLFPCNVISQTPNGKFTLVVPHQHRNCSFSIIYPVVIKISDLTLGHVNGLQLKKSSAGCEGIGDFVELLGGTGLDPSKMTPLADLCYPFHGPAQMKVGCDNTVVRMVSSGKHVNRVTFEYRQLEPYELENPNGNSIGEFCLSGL

[8] = viability of PTEN-deleted HCT116 cells – cell-based, HCT116 PTEN knockout, dose response (AID 1047); assay type: functional;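 further: HCT116 colon tumor cells with PTEN knocked out; cells exposed to compound for 60 hours before readout; potency for loss of cell viability measured by luminescence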
[9] = viability of HCT116 lacking mutant beta-catenin – cell-based, human colon tumor, dose response (AID 1045); assay type: functional;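 further: HCT116 colon tumor cells with beta catenin knocked out; cells exposed to compound for 60 hours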

T1 sequence (P11940 whole entry, the tested form may be a part): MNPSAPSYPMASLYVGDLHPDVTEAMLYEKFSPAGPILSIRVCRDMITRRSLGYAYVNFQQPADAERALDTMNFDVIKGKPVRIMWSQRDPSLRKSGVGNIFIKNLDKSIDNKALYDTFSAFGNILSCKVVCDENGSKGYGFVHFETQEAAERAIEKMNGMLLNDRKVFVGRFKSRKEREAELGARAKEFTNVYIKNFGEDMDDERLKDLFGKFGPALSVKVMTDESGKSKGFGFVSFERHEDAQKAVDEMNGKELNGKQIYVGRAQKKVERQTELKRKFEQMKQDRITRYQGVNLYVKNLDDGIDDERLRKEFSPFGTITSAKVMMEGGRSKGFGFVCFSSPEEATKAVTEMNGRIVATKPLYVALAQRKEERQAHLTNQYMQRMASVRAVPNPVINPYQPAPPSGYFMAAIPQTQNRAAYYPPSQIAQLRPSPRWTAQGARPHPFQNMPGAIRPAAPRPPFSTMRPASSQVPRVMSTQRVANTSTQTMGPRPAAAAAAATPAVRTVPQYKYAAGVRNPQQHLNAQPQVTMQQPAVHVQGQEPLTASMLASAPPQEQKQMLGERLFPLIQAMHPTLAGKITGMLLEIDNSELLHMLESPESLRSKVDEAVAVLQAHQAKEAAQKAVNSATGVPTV

## COC(=O)c1c(NC(=O)c2ccc(C)o2)sc2c1CCCCC2
[1]
  IC50: > 66 µM (inactive)
[2]
  IC50: > 66 µM (inactive)

## COc1ccc(OC)c(/C=C/C(=O)c2ccc3c(c2)OCCO3)c1
Vero
  CC50: 18.8 µM (active)

## O=C(CSc1nccc(=O)[nH]1)N1CCCc2ccccc21
[1]
  IC50: > 66 µM (inactive)
[2]
  IC50: > 66 µM (inactive)

## CCn1cc(C(=O)NCc2ccc(Cl)cc2)c(=O)c2cc(S(=O)(=O)N(C)C)ccc21
Fatty acid synthase [3]
  IC50: 8.74 µM (active)
Fatty acid synthase [4]
  IC50: 9.03 µM (active)

## Cc1ccc(C)c(S(=O)(=O)N2CCN(C(=O)Cc3ccc(S(=O)(=O)N4CCOCC4)s3)CC2)c1
Fatty acid synthase [3]
  IC50: 7.72 µM (active)
Fatty acid synthase [4]
  IC50: 6.49 µM (active)

## NNC(=O)C1C(O)CCC2CN3CCc4c([nH]c5ccccc45)C3CC21 (configuration not stated)
Vero
  CC50: > 25 µM (active)

## O=C(CSc1ncn(-c2ccccc2)n1)Nc1ccc2c(c1)OCCO2
[1]
  IC50: > 66 µM (inactive)
[2]
  IC50: > 66 µM (inactive)

## COc1ccc(C(=O)NC(=S)Nc2nc(C)c(C(=O)N(C)C)s2)cc1
[1]
  IC50: > 66 µM (inactive)
[2]
  IC50: > 66 µM (inactive)

## COc1ccc(-c2nnn(Cc3nc(N)nc(N4CCOCC4)n3)n2)cc1OC
Cytochrome P450 3A4
  AC50: 28.2 µM (inconclusive)
Cytochrome P450 2C19
  AC50: 35.5 µM (inconclusive)
Cytochrome P450 2C9
  AC50: 25.1 µM (inconclusive)
Cytochrome P450 2D6
  AC50: 12.6 µM (inconclusive)

## O=C(COC(=O)C1CCCCC1)Nc1cc([N+](=O)[O-])ccc1F
Fatty acid synthase [3]
  IC50: 8.3 µM (active)
[5]
  IC50: > 50 µM (not active)
Fatty acid synthase [4]
  IC50: 7.45 µM (active)

## CO/N=C1/c2cc(OC)ccc2O[C@@H](c2cccc(OC)c2)[C@H]1O
Cytochrome P450 3A4
  AC50: 6.31 µM (inconclusive)
Cytochrome P450 2C19
  AC50: 3.98 µM (inconclusive)
Cytochrome P450 2D6
  AC50: 3.16 µM (inconclusive)

## COc1ccc(Nc2ccc([N+](=O)[O-])cn2)cn1
[1]
  IC50: 59.6 µM (inactive)
[2]
  IC50: > 66 µM (inactive)

## Fc1cc(NCc2ccccc2)nc(NCc2ccccc2)n1
[6]
  EC50: 91.1 µM (active)

## CC1C(=O)N(Cc2cn(Cc3ccco3)nn2)CCS(=O)(=O)N1Cc1ccc(-c2ccccc2)cc1 (configuration not stated)
Vero
  CC50: > 25 µM (active)

## Cc1ccc(CN2CCN(/N=C/c3ccc(C)s3)CC2)c(C)c1
[6]
  EC50: > 260 µM (inactive)

## Cc1cc(S(=O)(=O)NCCCN2CCOCC2)ccc1F
Cytochrome P450 3A4
  AC50: 28.2 µM (inconclusive)
Cytochrome P450 2C19
  AC50: 28.2 µM (inconclusive)

## CC(=O)c1cccc(-c2ccnc3c2CC(C(=O)Nc2ccc(C(C)C)cc2)O3)c1 (configuration not stated)
Fatty acid synthase [3]
  IC50: 6.77 µM (active)
Fatty acid synthase [4]
  IC50: 10.8 µM (active)

## Cc1ccccc1NC(=O)OCc1cn(-c2ccc(Cl)cc2)nn1
Cytochrome P450 3A4
  AC50: 0.794 µM (inconclusive)
Cytochrome P450 2C19
  AC50: 8.91 µM (inconclusive)
Cytochrome P450 2D6
  AC50: 0.708 µM (inconclusive)

## COc1ccc(-c2nn(-c3ccccc3)cc2/C=C/C(=O)O)cc1[N+](=O)[O-]
Fatty acid synthase [3]
  IC50: 13.6 µM (active)
Fatty acid synthase [4]
  IC50: 12.1 µM (active)

## CCOC(=O)/C(C#N)=C1/SC(CC)C(=O)N1c1ccc(Br)cc1 (configuration not stated)
Cytochrome P450 3A4
  AC50: 28.2 µM (inconclusive)
Cytochrome P450 1A2
  AC50: 31.6 µM (inconclusive)
Cytochrome P450 2D6
  AC50: 11.2 µM (inconclusive)

## N#C/C(=C\c1ccccc1[N+](=O)[O-])C(=O)NC1CCCCC1
[1]
  IC50: > 66 µM (inactive)
[7]
  EC50: > 53 µM (inactive)
[2]
  IC50: > 66 µM (inactive)

## O=C(CSc1ncnc2c1nnn2Cc1ccccc1)NC1CCCCC1
Fatty acid synthase [3]
  IC50: 23.6 µM (inactive)
Fatty acid synthase [4]
  IC50: 24.3 µM (inactive)

## COc1ccc(CNCCc2ccccc2)cc1OCC(N)=O
Cytochrome P450 3A4
  AC50: 17.8 µM (inconclusive)
Cytochrome P450 2C19
  AC50: 6.31 µM (inconclusive)
Cytochrome P450 2C9
  AC50: 0.0282 µM (inconclusive)

## CC(C)(C)N(Cc1ccccc1)C(=O)COC(=O)c1cccc([N+](=O)[O-])c1
Fatty acid synthase [3]
  IC50: 2.97 µM (active)
Fatty acid synthase [4]
  IC50: 4.39 µM (active)

## CCOC(=O)c1cc2c(=O)n3cccc(C)c3nc2n(C)c1=N
[8]
  EC50: 6.72 µM (active)
[9]
  EC50: 4.97 µM (active)

## CCCN1C2=NCCCN2c2ccccc21
Cytochrome P450 3A4
  AC50: 35.5 µM (inconclusive)
Cytochrome P450 2C19
  AC50: 20 µM (inconclusive)

## Cc1cnn(-c2cc(N/N=C/c3ccccc3F)ncn2)c1
Cytochrome P450 2C9
  AC50: 1.26 µM (inconclusive)
[8]
  EC50: 12.7 µM (active)
[9]
  EC50: 21 µM (active)

## N=c1n(-c2ccccc2)c(O)cc(=O)n1-c1ccccc1
Cytochrome P450 3A4
  AC50: 25.1 µM (inconclusive)
Cytochrome P450 2D6
  AC50: 22.4 µM (inconclusive)

## CC1=Nc2cc(C(=O)O)ccc2Sc2c(C)ccc(C)c21
[6]
  EC50: > 260 µM (inactive)

## O=C(NCc1ccc(N2CCCC2=O)cc1)Nc1ccccc1
[6]
  EC50: > 260 µM (inactive)

From ChEMBL document CHEMBL1201862, “PubChem BioAssay data set” (2004)
